Measured values published in ChEMBL document CHEMBL5726595, “Protein kinase inhibitor containing pyrrolopyridazine derivative” (2017).
pIC50: −log10 of the molar value.

Target: Hepatocyte growth factor receptor (Homo sapiens, UniProt P08581)
Test: Kinase Assay: The inhibitory effect of the compounds of the present invention on the activity of c-Met was confirmed as follows.Specifically, 250 μM G4Y1 peptide, which serves as a substrate for c-Met enzyme (2 ng/μL), and 50 μM ATP were subjected to an enzyme reaction in a reaction buffer (40 mM Tris-HCl (pH 7.5), 20 mM MgCl2, 0.1 mg/mL bovine serum albumin, and 50 μM DTT). The compounds prepared in Examples and comparative compounds were treated at various concentrations and reacted at room temperature for 1 hour, sequentially added with ADP-Glo™ Reagent and the Kinase detection reagent, and reacted at room temperature for 40 minutes and 30 minutes, respectively.

Sequence of Hepatocyte growth factor receptor (P08581 whole entry): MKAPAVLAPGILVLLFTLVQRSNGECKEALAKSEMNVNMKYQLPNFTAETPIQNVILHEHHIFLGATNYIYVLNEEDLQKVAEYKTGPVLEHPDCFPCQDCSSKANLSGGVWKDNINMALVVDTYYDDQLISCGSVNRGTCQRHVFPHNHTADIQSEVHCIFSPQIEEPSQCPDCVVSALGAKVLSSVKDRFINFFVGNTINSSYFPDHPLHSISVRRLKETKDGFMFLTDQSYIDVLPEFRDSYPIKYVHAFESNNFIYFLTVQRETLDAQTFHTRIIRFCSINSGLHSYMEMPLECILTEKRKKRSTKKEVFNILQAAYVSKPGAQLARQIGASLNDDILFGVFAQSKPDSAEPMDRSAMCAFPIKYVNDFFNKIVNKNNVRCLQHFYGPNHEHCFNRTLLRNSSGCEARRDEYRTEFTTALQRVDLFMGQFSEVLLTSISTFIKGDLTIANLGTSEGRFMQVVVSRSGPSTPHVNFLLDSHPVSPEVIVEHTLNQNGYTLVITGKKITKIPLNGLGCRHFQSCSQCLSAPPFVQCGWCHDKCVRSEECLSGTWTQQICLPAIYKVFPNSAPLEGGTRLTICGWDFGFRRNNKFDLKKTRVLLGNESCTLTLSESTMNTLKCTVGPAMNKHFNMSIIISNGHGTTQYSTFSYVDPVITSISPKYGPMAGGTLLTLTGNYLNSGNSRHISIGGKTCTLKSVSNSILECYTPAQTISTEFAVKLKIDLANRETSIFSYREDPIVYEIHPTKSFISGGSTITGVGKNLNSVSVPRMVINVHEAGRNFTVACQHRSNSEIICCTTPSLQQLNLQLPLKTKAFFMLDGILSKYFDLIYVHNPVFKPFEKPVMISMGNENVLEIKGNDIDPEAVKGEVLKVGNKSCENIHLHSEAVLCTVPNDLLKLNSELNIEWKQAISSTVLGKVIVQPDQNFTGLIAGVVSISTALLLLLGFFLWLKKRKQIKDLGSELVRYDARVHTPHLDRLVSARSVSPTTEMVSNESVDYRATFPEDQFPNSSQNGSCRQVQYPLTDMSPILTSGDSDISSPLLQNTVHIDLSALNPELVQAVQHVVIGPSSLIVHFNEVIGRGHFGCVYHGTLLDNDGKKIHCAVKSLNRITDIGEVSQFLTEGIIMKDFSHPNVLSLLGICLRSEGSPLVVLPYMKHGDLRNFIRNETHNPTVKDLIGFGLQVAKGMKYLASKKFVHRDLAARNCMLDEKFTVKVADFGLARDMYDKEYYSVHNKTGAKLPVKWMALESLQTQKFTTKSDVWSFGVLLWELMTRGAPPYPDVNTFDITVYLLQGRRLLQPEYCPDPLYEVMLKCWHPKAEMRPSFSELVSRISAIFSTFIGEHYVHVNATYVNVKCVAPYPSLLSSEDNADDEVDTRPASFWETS

Row | SMILES | pIC50
1 | CN(C)Cc1ccc(Cl)c(-c2ccn3nccc(Oc4ccc(NC(=O)C5(C(=O)Nc6ccc(F)cc6)CC5)cc4F)c23)c1 | > 7.40
2 | CNCc1cccc(-c2ccn3nccc(Oc4ccc(NC(=O)C5(C(=O)Nc6ccc(F)cc6)CC5)cc4F)c23)c1 | > 7.40
3 | CCNCc1cccc(-c2ccn3nccc(Oc4ccc(NC(=O)C5(C(=O)Nc6ccc(F)cc6)CC5)cc4F)c23)c1 | > 7.40
4 | CCNc1cccc(-c2ccn3nccc(Oc4ccc(NC(=O)C5(C(=O)Nc6ccc(F)cc6)CC5)cc4F)c23)c1 | > 7.40
5 | NCc1cccc(-c2ccn3nccc(Oc4ccc(NC(=O)C5(C(=O)Nc6ccc(F)cc6)CC5)cc4F)c23)c1 | > 7.40

Results, then the compound that gave them:

Row | pIC50 | SMILES
6 | > 7.40 | CN(C)Cc1cc(F)cc(-c2ccn3nccc(Oc4ccc(NC(=O)C5(C(=O)Nc6ccc(F)cc6)CC5)cc4F)c23)c1
7 | > 7.40 | N#CCc1cccc(-c2ccn3nccc(Oc4ccc(NC(=O)C5(C(=O)Nc6ccc(F)cc6)CC5)cc4F)c23)c1
8 | > 7.40 | N#Cc1cc(N)cc(-c2ccn3nccc(Oc4ccc(NC(=O)C5(C(=O)Nc6ccc(F)cc6)CC5)cc4F)c23)c1
9 | > 7.40 | CN(C)Cc1cccc(-c2ccn3nccc(Oc4ccc(NC(=O)C5(C(=O)Nc6ccc(F)cc6)CC5)cc4F)c23)c1
10 | > 7.40 | CN(C)Cc1ccc(F)c(-c2ccn3nccc(Oc4ccc(NC(=O)C5(C(=O)Nc6ccc(F)cc6)CC5)cc4F)c23)c1
